Reference: patent US7816522B2, “Triazolone derivatives” (Eisai Co., Ltd., priority 2006, dated 2010)

Target: T1, human clotting factor VIIa (Homo sapiens, UniProt P08709)
T1 construct: a human clotting factor VIIa (hereinafter, “Factor VIIa”) purified sample; purchased Enzyme Research Laboratories HFVIIa
Assay: Inhibitory activity against clotting factor VIIa (chromogenic substrate Spectrozyme FVIIa, TF/Factor VIIa enzyme solution)
Type: biochemical
Conditions: human Factor VIIa 5 nmol/L with human TF 10 nmol/L, room temperature 40 minutes, 405 nm
Method in brief: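 Human Factor VIIa (5 nmol/L) with human TF (10 nmol/L) in Tris-BSA buffer pH 7.4 containing 15 mmol/L CaCl2 and cephalin, with Spectrozyme FVIIa substrate. Reaction 40 min at room temperature; 4-nitroanilide read at 405 nm. IC50 by non-linear regression over 100 μmol/L–0.1 nmol/L.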

T1 sequence (P08709 213-466 limits assumed): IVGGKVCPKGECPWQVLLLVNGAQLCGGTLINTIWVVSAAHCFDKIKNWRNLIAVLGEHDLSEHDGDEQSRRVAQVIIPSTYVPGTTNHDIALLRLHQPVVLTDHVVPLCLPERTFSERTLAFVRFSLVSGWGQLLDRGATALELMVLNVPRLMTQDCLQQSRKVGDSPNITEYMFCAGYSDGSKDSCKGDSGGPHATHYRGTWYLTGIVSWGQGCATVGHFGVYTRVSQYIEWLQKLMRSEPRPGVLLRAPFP
T1 sequence (P08709 61-212 limits assumed): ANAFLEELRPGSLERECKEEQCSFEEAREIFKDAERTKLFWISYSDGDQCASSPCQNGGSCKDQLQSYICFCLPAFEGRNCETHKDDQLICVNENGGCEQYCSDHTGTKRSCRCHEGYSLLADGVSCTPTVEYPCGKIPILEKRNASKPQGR
T1 sequence (P13726 33-295 partner): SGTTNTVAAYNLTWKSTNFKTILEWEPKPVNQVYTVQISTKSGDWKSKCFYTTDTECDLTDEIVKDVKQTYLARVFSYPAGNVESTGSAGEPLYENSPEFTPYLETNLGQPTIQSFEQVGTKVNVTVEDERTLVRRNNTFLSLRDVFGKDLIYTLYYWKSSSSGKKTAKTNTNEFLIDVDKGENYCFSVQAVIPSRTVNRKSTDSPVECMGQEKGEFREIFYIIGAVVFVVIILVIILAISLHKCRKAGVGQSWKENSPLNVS

Compound	IC50 [nM]
COc1cc(F)c(C(Nc2ccc(C(=N)N)cc2)c2nn(-c3ncccc3Br)c(=O)[nH]2)cc1OC (centres unmarked) [Example 134, 4-({[1-(3-bromopyridin-2-yl)-5-oxo-4,5-dihydro-1H-[1,2,4]triazol-3-yl]-(2-fluoro-4,5-dimethoxyphenyl)methyl}amino)benzamidine acetate]	11.7
Cc1cc(OCC(=O)N(C)C)cc(C(Nc2ccc(C(=N)N)cc2)c2nn(-c3ncccn3)c(=O)[nH]2)c1 (racemic) [Example 44, (R) and (S)-2-{3-[(4-carbamimidoylphenylamino)-(5-oxo-1-pyrimidin-2-yl-4,5-dihydro-1H-[1,2,4]triazol-3-yl)methyl]-5-methylphenoxy}-N,N-dimethylacetamide acetate]	25.7
COc1ccc(C(Nc2ccc(C(=N)N)c(O)c2)c2nn(-c3ccccc3C(=O)O)c(=O)[nH]2)cc1OC (racemic) [Example 183, 2-{3-[(R) and (S)-(4-carbamimidoyl-3-hydroxyphenylamino)-(3,4-dimethoxyphenyl)methyl]-5-oxo-4,5-dihydro-[1,2,4]triazol-1-yl}benzoic acid]	10.6
COc1cc(C(Nc2ccc(C(=N)N)cc2)c2nn(-c3ncccn3)c(=O)[nH]2)cnc1OC (racemic) [Example 234, 4-{[(5,6-Dimethoxypyridin-3-yl)-(5-oxo-1-pyrimidin-2-yl-4,5-dihydro-1H-[1,2,4]triazol-3-yl)methyl]amino}benzamidine]	11.1
COCCOc1cc(OC)cc(C(Nc2ccc(C(=N)N)cc2)c2nn(-c3ncccc3N)c(=O)[nH]2)c1F (racemic) [Example 203, 4-({(R) and (S)-[1-(3-Aminopyridin-2-yl)-5-oxo-4,5-dihydro-1H-[1,2,4]triazol-3-yl]-[2-fluoro-5-methoxy-3-(2-methoxyethoxy)phenyl]methyl}amino)benzamidine acetate]	8.5
CCOc1cc(OCCO)c(F)c(C(Nc2ccc(C(=N)N)cc2)c2nn(-c3ncccn3)c(=O)[nH]2)c1 (racemic) [Example 219, (R) and (S)-4-{[[5-Ethoxy-2-fluoro-3-(2-hydroxyethoxy)phenyl]-(5-oxo-1-pyrimidin-2-yl-4,5-dihydro-1H-[1,2,4]triazol-3-yl)methyl]amino}benzamidine acetate]	9.5
COc1cc(C(Nc2ccc(C(=N)N)cc2)c2nn(-c3ncccn3)c(=O)[nH]2)ccc1OCC#N (racemic) [Example 16, (R) and (S)-4-{[(4-cyanomethoxy-3-methoxyphenyl)-(5-oxo-1-pyrimidin-2-yl-4,5-dihydro-1H-[1,2,4]triazol-3-yl)methyl]amino}benzamidine acetate]	11.5
COc1cc(F)c(C(Nc2ccc(C(=N)N)cc2)c2nn(-c3ccccc3C(=O)O)c(=O)[nH]2)cc1OC (racemic) [Example 1, (R) and (S)-2-{3-[(4-carbamimidoylphenylamino)-(2-fluoro-4,5-dimethoxyphenyl)methyl]-5-oxo-4,5-dihydro-[1,2,4]triazol-1-yl}benzoic acid acetate]	7.5
COc1cc(C(Nc2ccc(C(=N)N)cc2)c2nn(-c3ncccn3)c(=O)[nH]2)cc2c1OCCO2 (racemic) [Example 20, (R) and (S)-4-{[(8-methoxy-2,3-dihydro-benzo[1,4]dioxin-6-yl)-(5-oxo-1-pyrimidin-2-yl-4,5-dihydro-1H-[1,2,4]triazol-3-yl)methyl]amino}benzamidine acetate]	9.7
COc1cc(C(Nc2ccc(C(=N)N)cc2)c2nn(-c3ncccn3)c(=O)[nH]2)cc(OCCO)c1OC (racemic) [Example 159, 4-({(R) and (S)-[3-(2-hydroxyethoxy)-4,5-dimethoxyphenyl]-(5-oxo-1-pyrimidin-2-yl-4,5-dihydro-1H-[1,2,4]triazol-3-yl)methyl}amino)benzamidine acetate]	11.7
C#Cc1cc(OCCO)cc(C(Nc2ccc(C(=N)N)cc2)c2nn(-c3ncccn3)c(=O)[nH]2)c1 (racemic) [Example 212, 4-{[[3-Ethynyl-5-(2-hydroxyethoxy)phenyl]-(5-oxo-1-pyrimidin-2-yl-4,5-dihydro-1H-[1,2,4]triazol-3-yl)methyl]amino}benzamidine]	5.7
COc1cc(C(Nc2ccc(C(=N)N)cc2)c2nn(-c3ccsc3C(=O)O)c(=O)[nH]2)c(F)cc1OCCO (racemic) [Example 237, 3-(3-{(4-Carbamimidoylphenylamino)-[2-fluoro-4-(2-hydroxyethoxy)-5-methoxyphenyl]methyl}-5-oxo-4,5-dihydro-[1,2,4]triazol-1-yl)thiophene-2-carboxylic acid]	23.5
COc1cc(C(Nc2ccc(C(=N)N)cc2)c2nn(-c3ncccc3N)c(=O)[nH]2)cc2c1OCOC2 (centres unmarked) [Example 57, 4-({[1-(3-aminopyridin-2-yl)-5-oxo-4,5-dihydro-1H-[1,2,4]triazol-3-yl]-(8-methoxy-4H-benzo[1,3]dioxin-6-yl)methyl}amino)benzamidine acetate]	8.9

The remaining lines, values ahead:

IC50 [nM]	Compound
1.2	COC(=O)c1sccc1-n1nc(C(Nc2ccc(C(=N)N)cc2)c2cc3c(c(OC)c2)OCOC3)[nH]c1=O (racemic) [Example 152, (R) and (S)-3-{3-[(4-carbamimidoylphenylamino)-(8-methoxy-4H-benzo[1,3]dioxin-6-yl)methyl]-5-oxo-4,5-dihydro[1,2,4]triazol-1-yl}thiophene-2-carboxylic acid methyl ester acetate]
2.7	COc1cc(C(Nc2ccc(C(=N)N)cc2)c2nn(-c3ccsc3C(=O)O)c(=O)[nH]2)c(F)c2c1OCCC2 (racemic) [Example 222, 3-{3-[(4-Carbamimidoylphenylamino)-(5-fluoro-8-methoxychroman-6-yl)methyl]-5-oxo-4,5-dihydro-[1,2,4]triazol-1-yl}thiophene-2-carboxylic acid]
4.7	COc1cc(C(Nc2ccc(C(=N)N)cc2)c2nn(-c3ccccc3C(N)=O)c(=O)[nH]2)cc2c1OCOC2 (racemic) [Example 211, 2-{3-[(4-Carbamimidoylphenylamino)-(8-methoxy-4H-benzo[1,3]dioxin-6-yl)methyl]-5-oxo-4,5-dihydro[1,2,4]triazol-1-yl}benzamide]
4.6	COc1cc(C(Nc2ccc(C(=N)N)cc2)c2nn(-c3ncccc3F)c(=O)[nH]2)cc2c1OCC2 (racemic) [Example 123, (R) and (S)-4-({[1-(3-fluoropyridin-2-yl)-5-oxo-4,5-dihydro-1H-[1,2,4]triazol-3-yl]-(7-methoxy-2,3-dihydrobenzofuran-5-yl)methyl}amino)benzamidine acetate]
5.4	CCOC(=O)c1cn[nH]c1-n1nc(C(Nc2ccc(C(=N)N)cc2)c2cc(OC)c3c(c2F)OCCCO3)[nH]c1=O (centres unmarked) [Example 192, 5-{3-[(4-Carbamimidoylphenylamino)-(6-fluoro-9-methoxy-3,4-dihydro-2H-benzo[b][1,4]dioxepin-7-yl)methyl]-5-oxo-4,5-dihydro-[1,2,4]triazol-1-yl}-1H-pyrazole-4-carboxylic acid ethyl ester acetate]
5.6	COc1cc(C(Nc2ccc(C(=N)N)cc2)c2nn(-c3ccsc3C(=O)O)c(=O)[nH]2)ccc1OCCCO (racemic) [Example 206, 3-(3-{(R) and (S)-(4-Carbamimidoylphenylamino)-[4-(3-hydroxypropoxy)-3-methoxyphenyl]methyl}-5-oxo-4,5-dihydro-[1,2,4]triazol-1-yl)thiophene-2-carboxylic acid]
5.4	COc1cc(OCCF)c(F)c(C(Nc2ccc(C(=N)N)cc2)c2nn(-c3cccnn3)c(=O)[nH]2)c1 (racemic) [Example 151, (R) and (S)-4-{[(2-fluoro-3-(2-fluoroethoxy)-5-methoxyphenyl)-(5-oxo-1-pyridazin-3-yl-4,5-dihydro-1H-[1,2,4]triazol-3-yl)methyl]amino}benzamidine acetate]
3.1	CCc1cc(C(Nc2ccc(C(=N)N)cc2)c2nn(-c3ncccn3)c(=O)[nH]2)cc2c1OCOC2 (racemic) [Example 27, (R) and (S)-4-{[(8-ethyl-4H-benzo[1,3]dioxin-6-yl)-(5-oxo-1-pyrimidin-2-yl-4,5-dihydro-1H-[1,2,4]triazol-3-yl)methyl]amino}benzamidine acetate]
3.7	Cc1cc(OC2CCOCC2)cc(C(Nc2ccc(C(=N)N)cc2)c2nn(-c3ncccn3)c(=O)[nH]2)c1 (racemic) [Example 60, (R) and (S)-4-({[3-methyl-5-(tetrahydropyran-4-yloxy)phenyl]-(5-oxo-1-pyrimidin-2-yl-4,5-dihydro-1H-[1,2,4]triazol-3-yl)methyl}amino)benzamidine acetate]
5.3	CCOc1cc(OC)cc(C(Nc2ccc(C(=N)N)cc2)c2nn(-c3cccnn3)c(=O)[nH]2)c1 (racemic) [Example 65, (R) and (S)-4-{[(3-ethoxy-5-methoxyphenyl)-(5-oxo-1-pyridazin-3-yl-4,5-dihydro-1H-[1,2,4]triazol-3-yl)methyl]amino}benzamidine acetate]
3.9	COc1cc(OC2CCOCC2)cc(C(Nc2ccc(C(=N)N)cc2)c2nn(-c3ncccn3)c(=O)[nH]2)c1 (racemic) [Example 63, (R) and (S)-4-({[3-methoxy-5-(tetrahydropyran-4-yloxy)phenyl]-(5-oxo-1-pyrimidin-2-yl-4,5-dihydro-1H-[1,2,4]triazol-3-yl)methyl}amino)benzamidine acetate]
3.8	CCc1cc(OCCN(C)C)c(F)c(C(Nc2ccc(C(=N)N)cc2)c2nn(-c3ccccc3N)c(=O)[nH]2)c1 (centres unmarked) [Example 139, 4-({[1-(2-aminophenyl)-5-oxo-4,5-dihydro-1H-[1,2,4]triazol-3-yl]-[3-(2-dimethylaminoethoxy)-5-ethyl-2-fluorophenyl]methyl}amino)benzamidine bistrifluoroacetate]
3.3	CCc1cc(OCCF)cc(C(Nc2ccc(C(=N)N)cc2)c2nn(-c3ncccn3)c(=O)[nH]2)c1 (racemic) [Example 74, (R) and (S)-4-({[3-ethyl-5-(2-fluoroethoxy)phenyl]-(5-oxo-1-pyrimidin-2-yl-4,5-dihydro-1H-[1,2,4]triazol-3-yl)methyl}amino)benzamidine acetate]
